Data from PubChem BioAssay (NCI).
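Tested at 5 concentrations; 48 h exposure; 96-well plates; endpoints linearly interpolated, else capped at highest concentration. At the GI50, growth is halved. The concentration for full growth arrest is given as TGI.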

Legend:
Assay in all cases: NCI-60 cell line screen, 48 h
MDA-MB-435 = system: MDA-MB-435
SN12C renal = system: SN12C renal
CAKI-1 renal = system: CAKI-1 renal
LOX IMVI melanoma = system: LOX IMVI melanoma
786-0 renal = system: 786-0 renal
A549 NSCLC = system: A549 NSCLC
BT-549 breast = system: BT-549 breast
KM12 colon = system: KM12 colon
MDA-MB-231 breast = system: MDA-MB-231 breast
OVCAR-5 ovarian = system: OVCAR-5 ovarian
SNB-19 CNS = system: SNB-19 CNS
SK-MEL-5 melanoma = system: SK-MEL-5 melanoma
SW-620 colon = system: SW-620 colon
NCI-H226 lung = system: NCI-H226 lung
EKVX NSCLC = system: EKVX NSCLC
PC-3 prostate = system: PC-3 prostate
HT29 colon = system: HT29 colon
SF-295 CNS = system: SF-295 CNS
SR leukemia = system: SR leukemia
HCT-15 colon = system: HCT-15 colon
MCF7 breast = system: MCF7 breast
HCC-2998 colon = system: HCC-2998 colon
UACC-62 melanoma = system: UACC-62 melanoma
NCI/ADR-RES ovarian = system: NCI/ADR-RES ovarian
HL-60(TB) leukemia = system: HL-60(TB) leukemia
COLO 205 colon = system: COLO 205 colon
OVCAR-4 ovarian = system: OVCAR-4 ovarian
HOP-92 NSCLC = system: HOP-92 NSCLC
UO-31 renal = system: UO-31 renal
DU-145 prostate = system: DU-145 prostate
SK-MEL-28 melanoma = system: SK-MEL-28 melanoma
OVCAR-8 ovarian = system: OVCAR-8 ovarian
M14 melanoma = system: M14 melanoma
MDA-N = system: MDA-N
SK-MEL-2 melanoma = system: SK-MEL-2 melanoma
MOLT-4 leukemia = system: MOLT-4 leukemia
HOP-62 NSCLC = system: HOP-62 NSCLC
RXF 393 renal = system: RXF 393 renal
NCI-H522 lung = system: NCI-H522 lung
SK-OV-3 ovarian = system: SK-OV-3 ovarian
SF-539 CNS = system: SF-539 CNS
UACC-257 melanoma = system: UACC-257 melanoma
NCI-H23 lung = system: NCI-H23 lung
A498 renal = system: A498 renal
ACHN renal = system: ACHN renal
IGROV1 ovarian = system: IGROV1 ovarian
U251 CNS = system: U251 CNS
SNB-75 CNS = system: SNB-75 CNS
K-562 leukemia = system: K-562 leukemia
NCI-H460 lung = system: NCI-H460 lung
HCT-116 colon = system: HCT-116 colon
T-47D breast = system: T-47D breast
HS 578T breast = system: HS 578T breast
RPMI-8226 leukemia = system: RPMI-8226 leukemia
CCRF-CEM leukemia = system: CCRF-CEM leukemia
SF-268 CNS = system: SF-268 CNS
OVCAR-3 ovarian = system: OVCAR-3 ovarian
TK-10 renal = system: TK-10 renal
MALME-3M melanoma = system: MALME-3M melanoma
DMS 273 small cell lung = system: DMS 273 small cell lung
DLD-1 colon = system: DLD-1 colon
KM20L2 colon = system: KM20L2 colon
M19-MEL melanoma = system: M19-MEL melanoma
DMS 114 small cell lung = system: DMS 114 small cell lung
LXFL 529 NSCLC = system: LXFL 529 NSCLC
SNB-78 CNS = system: SNB-78 CNS

CN(Cc1cnc2nc(N)nc(N)c2n1)c1ccc(C(=O)NC(CCC(=O)NCCC(P(=O)(O)O)P(=O)(O)O)C(=O)O)cc1 (centres undefined)
TGI (MDA-MB-435): > 100000 nM | TGI (SN12C renal): > 100000 nM | TGI (CAKI-1 renal): > 100000 nM | TGI (LOX IMVI melanoma): > 100000 nM | TGI (786-0 renal): > 100000 nM | TGI (A549 NSCLC): > 100000 nM | TGI (BT-549 breast): > 100000 nM | TGI (KM12 colon): > 100000 nM | TGI (MDA-MB-231 breast): > 100000 nM | TGI (OVCAR-5 ovarian): > 100000 nM | TGI (SNB-19 CNS): > 100000 nM | TGI (SK-MEL-5 melanoma): > 100000 nM | TGI (SW-620 colon): > 100000 nM | TGI (NCI-H226 lung): > 100000 nM | TGI (EKVX NSCLC): > 100000 nM | TGI (PC-3 prostate): > 100000 nM | TGI (HT29 colon): > 100000 nM | TGI (SF-295 CNS): > 100000 nM | TGI (SR leukemia): > 100000 nM | TGI (HCT-15 colon): > 100000 nM | TGI (MCF7 breast): > 100000 nM | TGI (HCC-2998 colon): > 100000 nM | TGI (UACC-62 melanoma): > 100000 nM | TGI (NCI/ADR-RES ovarian): > 100000 nM | TGI (HL-60(TB) leukemia): > 100000 nM | TGI (COLO 205 colon): > 100000 nM | TGI (OVCAR-4 ovarian): > 100000 nM | TGI (HOP-92 NSCLC): > 100000 nM | TGI (UO-31 renal): > 100000 nM | TGI (DU-145 prostate): > 100000 nM | TGI (SK-MEL-28 melanoma): > 100000 nM | TGI (OVCAR-8 ovarian): > 100000 nM | TGI (M14 melanoma): > 100000 nM | TGI (MDA-N): > 100000 nM | TGI (SK-MEL-2 melanoma): > 100000 nM | TGI (MOLT-4 leukemia): > 100000 nM | TGI (HOP-62 NSCLC): > 100000 nM | TGI (RXF 393 renal): > 100000 nM | TGI (NCI-H522 lung): > 100000 nM | TGI (SK-OV-3 ovarian): > 100000 nM | TGI (SF-539 CNS): > 100000 nM | TGI (UACC-257 melanoma): > 100000 nM | TGI (NCI-H23 lung): > 100000 nM | TGI (A498 renal): > 100000 nM | TGI (ACHN renal): > 100000 nM | TGI (IGROV1 ovarian): > 100000 nM | TGI (U251 CNS): > 100000 nM | TGI (SNB-75 CNS): > 100000 nM | TGI (K-562 leukemia): > 100000 nM | TGI (NCI-H460 lung): > 100000 nM | TGI (HCT-116 colon): > 100000 nM | TGI (T-47D breast): > 100000 nM | TGI (HS 578T breast): > 100000 nM | TGI (RPMI-8226 leukemia): > 100000 nM | TGI (CCRF-CEM leukemia): > 100000 nM | TGI (SF-268 CNS): > 100000 nM | TGI (OVCAR-3 ovarian): > 100000 nM | TGI (TK-10 renal): > 100000 nM | TGI (MALME-3M melanoma): > 100000 nM

CCC[CH2][Sn]1([CH2]CCC)[O]N=C(c2ccccc2)C(c2ccccc2)[O]1 (centres undefined)
GI50 (SN12C renal): 1770 nM | TGI (SN12C renal): 3180 nM | GI50 (CAKI-1 renal): 970 nM | TGI (CAKI-1 renal): 2400 nM | GI50 (LOX IMVI melanoma): 1380 nM | TGI (LOX IMVI melanoma): 2860 nM | GI50 (786-0 renal): 1450 nM | TGI (786-0 renal): 2830 nM | GI50 (A549 NSCLC): 10500 nM | TGI (A549 NSCLC): 22300 nM | GI50 (KM12 colon): 3490 nM | TGI (KM12 colon): 14100 nM | GI50 (OVCAR-5 ovarian): 2840 nM | TGI (OVCAR-5 ovarian): 9310 nM | GI50 (SNB-19 CNS): 2140 nM | TGI (SNB-19 CNS): 5040 nM | GI50 (SK-MEL-5 melanoma): 1620 nM | TGI (SK-MEL-5 melanoma): 3230 nM | GI50 (SW-620 colon): 989 nM | TGI (SW-620 colon): 2270 nM | GI50 (NCI-H226 lung): 2090 nM | TGI (NCI-H226 lung): 5590 nM | GI50 (EKVX NSCLC): 1160 nM | TGI (EKVX NSCLC): 3010 nM | GI50 (HT29 colon): 2460 nM | TGI (HT29 colon): 5400 nM | GI50 (SF-295 CNS): 1730 nM | TGI (SF-295 CNS): 3410 nM | GI50 (DMS 273 small cell lung): 1590 nM | TGI (DMS 273 small cell lung): 3050 nM | GI50 (SR leukemia): 574 nM | TGI (SR leukemia): 3590 nM | GI50 (DLD-1 colon): 1790 nM | TGI (DLD-1 colon): 3580 nM | GI50 (KM20L2 colon): 2540 nM | TGI (KM20L2 colon): 8740 nM | GI50 (HCT-15 colon): 1460 nM | TGI (HCT-15 colon): 2770 nM | GI50 (HCC-2998 colon): 2180 nM | TGI (HCC-2998 colon): 4470 nM | GI50 (UACC-62 melanoma): 1420 nM | TGI (UACC-62 melanoma): 2810 nM | GI50 (HL-60(TB) leukemia): 263 nM | TGI (HL-60(TB) leukemia): 1420 nM | GI50 (COLO 205 colon): 1530 nM | TGI (COLO 205 colon): 2920 nM | GI50 (OVCAR-4 ovarian): 2130 nM | TGI (OVCAR-4 ovarian): 4180 nM | GI50 (HOP-92 NSCLC): 1540 nM | TGI (HOP-92 NSCLC): 2960 nM | GI50 (UO-31 renal): 1680 nM | TGI (UO-31 renal): 3460 nM | GI50 (SK-MEL-28 melanoma): 1360 nM | TGI (SK-MEL-28 melanoma): 2640 nM | GI50 (M19-MEL melanoma): 1560 nM | TGI (M19-MEL melanoma): 3130 nM | GI50 (OVCAR-8 ovarian): 1870 nM | TGI (OVCAR-8 ovarian): 3960 nM | GI50 (M14 melanoma): 1630 nM | TGI (M14 melanoma): 3090 nM | GI50 (SK-MEL-2 melanoma): 1270 nM | TGI (SK-MEL-2 melanoma): 2530 nM | GI50 (MOLT-4 leukemia): 1810 nM | TGI (MOLT-4 leukemia): 6520 nM | GI50 (HOP-62 NSCLC): 3240 nM | TGI (HOP-62 NSCLC): 7930 nM | GI50 (DMS 114 small cell lung): 965 nM | TGI (DMS 114 small cell lung): 2180 nM | GI50 (RXF 393 renal): 1500 nM | TGI (RXF 393 renal): 2870 nM | GI50 (NCI-H522 lung): 362 nM | TGI (NCI-H522 lung): 1470 nM | GI50 (SK-OV-3 ovarian): 3840 nM | TGI (SK-OV-3 ovarian): 12700 nM | GI50 (SF-539 CNS): 1790 nM | TGI (SF-539 CNS): 3390 nM | GI50 (UACC-257 melanoma): 2020 nM | TGI (UACC-257 melanoma): 4510 nM | GI50 (NCI-H23 lung): 1280 nM | TGI (NCI-H23 lung): 2640 nM | GI50 (A498 renal): 2590 nM | TGI (A498 renal): 4820 nM | GI50 (ACHN renal): 1720 nM | TGI (ACHN renal): 3100 nM | GI50 (IGROV1 ovarian): 1890 nM | TGI (IGROV1 ovarian): 3900 nM | GI50 (LXFL 529 NSCLC): 316 nM | TGI (LXFL 529 NSCLC): 1230 nM | GI50 (U251 CNS): 1540 nM | TGI (U251 CNS): 2900 nM | GI50 (SNB-75 CNS): 1600 nM | TGI (SNB-75 CNS): 4100 nM | GI50 (K-562 leukemia): 387 nM | TGI (K-562 leukemia): 2380 nM | GI50 (NCI-H460 lung): 4460 nM | TGI (NCI-H460 lung): 15800 nM | GI50 (HCT-116 colon): 1670 nM | TGI (HCT-116 colon): 3350 nM | GI50 (RPMI-8226 leukemia): 588 nM | TGI (RPMI-8226 leukemia): 4380 nM | GI50 (SNB-78 CNS): 3070 nM | TGI (SNB-78 CNS): 8010 nM | GI50 (CCRF-CEM leukemia): 290 nM | TGI (CCRF-CEM leukemia): 2420 nM | GI50 (OVCAR-3 ovarian): 1420 nM | TGI (OVCAR-3 ovarian): 2840 nM | GI50 (TK-10 renal): 1900 nM | TGI (TK-10 renal): 4090 nM | GI50 (MALME-3M melanoma): 1130 nM | TGI (MALME-3M melanoma): 2490 nM
